Data taken from the METLIN SMRT retention time set (Domingo-Almenara et al. 2019).

Assay: gradient 5% acetonitrile 3 min, to 50% in 2 min, to 85% in 15 min, held 3 min, 100 µL/min
Settings: column: Zorbax Extend-C18 2.1 x 50 mm; eluents: water / acetonitrile, 0.1% formic acid
Procedure, shortened: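 Retention times come from adduct peaks that were picked computationally and then checked by hand. The standards, pure and pooled in mixtures of ~100 molecules, were run on a Zorbax Extend-C18 column (2.1 × 50 mm, 1.8 μm) at 100 μL/min with water and acetonitrile, each with 0.1% formic acid. Detection was by quadrupole time-of-flight mass spectrometry in positive and negative ionization mode, with a dead volume of 40 μL and a dwell volume of 900 μL.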

For O=C(c1nc(Nc2ccc(F)cc2)c2ccccc2n1)N1CCOCC1, the RP-LC retention time was 685 s.

Work on O=C(c1ccc2c(c1)OCO2)N1[C@H]2CC[C@@H]1c1cnc(-c3ccccc3)nc1C2 yielded an RP-LC retention time of 914 s.

Work on Cc1ccc2[nH]cc(CCNC(=O)Cn3c4ccccc4c4cnn(C)c(=O)c43)c2c1 yielded an RP-LC retention time of 839 s.

Compound O=C(CSc1nnc(CNC(=O)c2ccc(F)cc2)o1)NCc1ccco1 has an RP-LC retention time of 647 s.

For O=C(NCCc1ccco1)C1CCN(c2nc3cccnc3s2)CC1, the RP-LC retention time was 697 s.

Work on Cc1nc([N+](=O)[O-])c(Sc2nc3ccccc3[nH]2)n1Cc1ccccc1 yielded an RP-LC retention time of 702 s.

Compound Cc1noc(C)c1Cc1ccc(C(=O)N2CCCCCCN(C)C(=O)[C@@H]3CCC[C@@H]32)o1 has an RP-LC retention time of 814 s.

In the case of O=C(C1=CN(c2ccccc2F)c2cc(Cl)ccc2S1(=O)=O)N1CCCC1, the RP-LC retention time is reported as 842 s.

With CCc1ccc(Nc2nc(C(=O)NC3CCCC3)nc3ccccc23)cc1 the RP-LC retention time was 934 s.

Work on CC(C)CCN1CCC(N2CCN(S(=O)(=O)c3ccc(F)cc3F)CC2)C1=O (stereo not given) yielded an RP-LC retention time of 690 s.

Compound CCn1c(=O)c2ccccc2n(Cc2nc(-c3ccc(C(F)(F)F)cc3)no2)c1=O has an RP-LC retention time of 1120 s.

In the case of Cc1ccc(C(=O)Nc2ccc(-c3nnc4n3CCCC4)cc2)s1, the RP-LC retention time is reported as 680 s.

With Nc1n[nH]c(-c2ccc(Cl)cc2)n1 the RP-LC retention time was 605 s.

Work on COc1ccc(C2C(C(=O)N3CCC(C)CC3)c3cc(OC)c(OC)cc3C(=O)N2C)cc1OC (stereo not given) yielded an RP-LC retention time of 764 s.

In the case of CCOc1ccc(-c2csc(Cc3nc(-c4ccc(C)cc4)no3)n2)cc1, the RP-LC retention time is reported as 1310 s.

Compound COc1ccc(C)cc1NC(=O)c1cc(C)n2nc(C)cc2n1 has an RP-LC retention time of 1040 s.

Compound COc1ccc(-c2cc(C(=O)Nc3cc(C)cc(C)c3)nn2C2CCS(=O)(=O)C2)cc1 (stereo not given) has an RP-LC retention time of 741 s.

Cc1sc(C)c(S(=O)(=O)NCc2ccc(F)cc2)c1-c1cc(C(F)(F)F)on1 gave an RP-LC retention time of 1160 s.

For O=c1c2cnn(-c3ccc(F)cc3)c2ncn1Cc1nc(-c2ccccc2)no1, the RP-LC retention time was 1010 s.

With Cc1cc(C(=O)Nc2cccn3c(C4CCC4)nnc23)no1 the RP-LC retention time was 724 s.

In the case of Cc1ccc(CNC(=O)c2csc(-c3cn(C)c4ncccc34)n2)cc1C, the RP-LC retention time is reported as 840 s.

O=C(c1cccs1)N(Cc1ccco1)c1nc2c(F)cc(F)cc2s1 showed an RP-LC retention time of 1160 s.

For O=C(NCCc1csc(-c2cccc(F)c2)n1)Nc1c(F)cccc1F, the RP-LC retention time was 810 s.

With Cn1c(C2CCN(C(=O)Nc3ccccc3C(F)(F)F)CC2)cc(=O)n2nccc12 the RP-LC retention time was 654 s.

With COc1ccc(-c2nnc(-c3cc(S(N)(=O)=O)ccc3Cl)o2)cc1 the RP-LC retention time was 792 s.

O=C(NC1COc2ccccc2C1)N1CCOCC1 (stereo not given) gave an RP-LC retention time of 660 s.

Compound CN(C)Cc1cc(C(F)(F)F)ccc1C(O)(c1ccccc1)c1ccccc1 has an RP-LC retention time of 883 s.

Compound NC(=O)C1CCN(C2CC(=O)N(c3ccc(Oc4ccccc4)cc3)C2=O)CC1 (stereo not given) has an RP-LC retention time of 662 s.

For COc1ccc(CCN2CC(=O)N(c3cccc(C)c3)[C@@H]3CS(=O)(=O)C[C@@H]32)cc1, the RP-LC retention time was 830 s.

Compound C[C@@H]1CN(C(=O)NC2CCCC2)C[C@H]1c1nc(-c2ccncc2)no1 has an RP-LC retention time of 671 s.

With CCN(CC)C(=O)c1ccc(-c2nc3cc(NS(=O)(=O)c4ccccc4F)ccc3n2C)cc1 the RP-LC retention time was 679 s.

O=C1NCCCn2cc(S(=O)(=O)Nc3ccc(F)cc3F)cc21 gave an RP-LC retention time of 641 s.

Work on O=C(NC1CCCCCC1)C1CCN(Cc2cc3ccccc3n2Cc2ccccc2)CC1 yielded an RP-LC retention time of 845 s.

Cc1noc(-c2nn(C)c3c2CN(C(=O)C2CCCC2)CC3)n1 gave an RP-LC retention time of 722 s.

Work on COc1ccc(C(O)CN2CCN(c3ccccn3)CC2)cc1 (stereo not given) yielded an RP-LC retention time of 540 s.

For COc1cc(NC(=O)Cn2nc3nc(N4CCCC(C)C4)ccn3c2=O)cc(OC)c1 (stereo not given), the RP-LC retention time was 770 s.

For O=c1c2nnc(SCc3ccc(F)cc3)n2ccn1-c1ccc(F)cc1, the RP-LC retention time was 812 s.

With CC(C)N1CCn2c(nc3cc(C(=O)NCc4ccc(Br)cc4)ccc32)C1=O the RP-LC retention time was 761 s.

With Cc1nc(NC(=O)Cn2nc3c(cc2=O)CCCCC3)sc1C the RP-LC retention time was 786 s.

O=C([C@@H]1C[C@H](F)CN1S(=O)(=O)c1ccc(F)c(Cl)c1)N1CCCCC1 showed an RP-LC retention time of 875 s.

With COCCNc1c(-c2ccccc2)nc2sc(C(=O)N(C)C)c(C)n12 the RP-LC retention time was 643 s.

With CCn1cc(-c2ccc(C)cc2)cc1C(=O)NC(C)C the RP-LC retention time was 1040 s.

Work on CCc1ccccc1NC(=O)N1CCCC(C)(C(=O)NCc2ccccc2C)C1 (stereo not given) yielded an RP-LC retention time of 1020 s.

In the case of COCc1c(C(=O)O)nnn1-c1ccc(C)c(C)c1, the RP-LC retention time is reported as 757 s.

With CCOc1ccccc1NS(=O)(=O)c1cc(-c2c(CC)noc2NC(C)=O)ccc1C the RP-LC retention time was 846 s.

Work on O=C(NCc1ccc(F)cc1)C1CCN(S(=O)(=O)c2cc(C(=O)N3CCOCC3)cs2)CC1 yielded an RP-LC retention time of 739 s.

Compound CCCCCC[C@@H]([C@@H](C)O)n1cnc2c(N)ncnc21 has an RP-LC retention time of 714 s.

Cc1ccc(C2=NC(c3ccc([N+](=O)[O-])cc3)SC(N3CCOCC3)=N2)cc1 (stereo not given) showed an RP-LC retention time of 642 s.

CC1CCN(CC2CCCCCN2C(=O)Nc2ccc3c(c2)OCCO3)CC1 (stereo not given) gave an RP-LC retention time of 684 s.

O=c1ccn(-c2ccccc2)nc1-c1nc(-c2ccncc2)no1 showed an RP-LC retention time of 649 s.

Compound Cc1ccc(CNC(=O)C2(C)CN(S(C)(=O)=O)CC(=O)N2c2cccc(C)c2C)cc1 (stereo not given) has an RP-LC retention time of 856 s.

Compound O=C(CCCN1C(=O)c2cccc3cccc(c23)C1=O)NC1CCCCC1 has an RP-LC retention time of 812 s.

Compound COc1ccc(CC(=O)N2CCN(c3cc(C)n4c(C)nnc4n3)CC2)cc1OC has an RP-LC retention time of 578 s.

O=C(CNC(=O)C1CCCCC1)Nc1nc2ccccc2[nH]1 showed an RP-LC retention time of 619 s.

In the case of O=C(NCc1ccc2c(c1)OCO2)C1CCCN(c2ncc(-c3cccc(F)c3)cn2)C1 (stereo not given), the RP-LC retention time is reported as 998 s.

CCCCN(C)C(=O)CCC1CCCN(c2cc(NCC)ncn2)C1 (stereo not given) gave an RP-LC retention time of 658 s.

In the case of COc1cccc(CNC(=O)N2CCC(N3CCN(Cc4cccc(F)c4)C(=O)C3=O)CC2)c1, the RP-LC retention time is reported as 688 s.

For O=C(c1ccc2nc[nH]c2c1)N1CCCN(c2cc(-c3ccc(Br)cc3)[nH]n2)CC1, the RP-LC retention time was 625 s.

With O=C(C1CC1)N1CCc2sc(S(=O)(=O)NCc3ccccc3)cc2C1 the RP-LC retention time was 795 s.

CCn1cc(C(=O)Nc2cccc(Cl)c2)c(S(=O)(=O)N2CCSCC2)n1 gave an RP-LC retention time of 890 s.

In the case of Cc1nc(C2(C)CCN(S(=O)(=O)c3ccccc3Cl)CC2)no1, the RP-LC retention time is reported as 911 s.

O=S(=O)(c1ccc(-c2csc(Nc3ccc(Cl)cc3)n2)cc1)N1CCOCC1 gave an RP-LC retention time of 1080 s.

In the case of Cc1nc(-c2cc(S(=O)(=O)NCc3ccc(F)cc3F)c(C)s2)cs1, the RP-LC retention time is reported as 956 s.

For O=C(c1cc(-c2ccccc2)n(C2CCS(=O)(=O)C2)n1)N1CCCC1 (stereo not given), the RP-LC retention time was 682 s.

COC(=O)CCC(=O)Nc1nc(-c2ccccc2)cs1 showed an RP-LC retention time of 840 s.

Compound Cc1cc(F)ccc1NS(=O)(=O)c1cc2n(c1)CCN(C(C)C)C2=O has an RP-LC retention time of 773 s.

Compound CC1CCC(NC(=O)Cn2nc(C(=O)N3CCCC3)c3ccccc32)CC1 (stereo not given) has an RP-LC retention time of 892 s.

In the case of COc1ccc2cc(C(=O)N3CCC(CC(=O)NC4CC4)CC3)[nH]c2c1, the RP-LC retention time is reported as 690 s.

With Cc1ccc(CNS(=O)(=O)c2ccc(-c3nnc(C)o3)o2)o1 the RP-LC retention time was 737 s.

O=C(NCCN1CCCC1)c1nc(Nc2ccc(F)cc2)c2ccccc2n1 showed an RP-LC retention time of 689 s.

COc1cc(NC(=O)N2CCC3(CC2)N=C(c2cccc(F)c2)C(=O)N3)cc(OC)c1 showed an RP-LC retention time of 822 s.

Work on NC(=O)C1(N2CCCCC2)CCN(C(=O)c2c(-c3ccccc3)nnc3ccccc23)CC1 yielded an RP-LC retention time of 588 s.

CCSc1nnc(NC(=O)C2(c3cc(-c4cccs4)on3)CC2)s1 gave an RP-LC retention time of 1020 s.

With CC(C)(Oc1ccc(Cl)cc1)C(=O)NCCS(=O)(=O)N1CCc2ccccc2C1 the RP-LC retention time was 1000 s.

Cc1ccc(-c2nc(CN3CCN(C(=O)NC(C)C)CC3)c(C)o2)cc1 gave an RP-LC retention time of 592 s.

COc1cccc(NC(=O)N2CCC(n3c(-c4ccoc4)nc4cccnc43)C2)c1 (stereo not given) gave an RP-LC retention time of 715 s.

Work on CC(=O)Nc1onc(C)c1-c1ccc(C)c(S(=O)(=O)NCc2ccc(N(C)C)cc2)c1 yielded an RP-LC retention time of 1170 s.

Work on Cc1nc2cc(-c3noc(-c4ccc(Br)o4)n3)ccc2o1 yielded an RP-LC retention time of 1090 s.

COCCCNc1nccc(-n2nc(C)cc2C)n1 gave an RP-LC retention time of 631 s.

Compound O=C(CCc1c(-c2ccc(Br)cc2)nc2ccccn12)NC1CCCC1 has an RP-LC retention time of 667 s.

Compound Cc1ccc(CNC(=O)CN2C(=O)CCn3nc(-c4cn(C)c5ccccc45)cc32)o1 has an RP-LC retention time of 806 s.

For CC1(C)CCC[C@]2(C)[C@H]3CC(=O)O[C@]3(C)CC[C@@H]12, the RP-LC retention time was 1220 s.

For CCCN(CC1CCOC1)C(=O)c1ccccc1Cl (stereo not given), the RP-LC retention time was 788 s.

With O=C(c1ccncn1)N1CC(n2cnnc2C2CCCO2)C1 (stereo not given) the RP-LC retention time was 580 s.

Compound C[C@H]1CN(C(=O)c2ccc3ccccc3n2)C[C@@H]1c1nc(-c2cccnc2)no1 has an RP-LC retention time of 821 s.

For CCC(=O)Nc1ccc(-n2cnc(C(=O)NCC3CC3)c2)nc1, the RP-LC retention time was 660 s.

Compound Cc1c(Cl)cccc1NC(=O)CCOc1ccccc1 has an RP-LC retention time of 888 s.

Work on CCn1c(=O)c(N2CCCC(C(=O)NCc3cc(Br)ccc3OC)C2)nc2ccccc21 (stereo not given) yielded an RP-LC retention time of 1140 s.

In the case of CS(=O)(=O)Nc1ccc(C2(C(=O)NCc3ccc(F)cc3)CCCCC2)cc1, the RP-LC retention time is reported as 897 s.

Compound CCN(Cc1ccccc1)C(=O)C1CCN(c2ncnc3c2oc2ccccc23)CC1 has an RP-LC retention time of 871 s.
